Source: patent EP4467141A1, “PYRAZOLO-QUINOLINES AS SELECTIVE INHIBITORS OF GENOTOXIC STRESS-INDUCED IKK/NF- KB PATHWAYS FOR CANCER THERAPY” (Max-Delbrück-Centrum für Molekulare Medizin in der …, priority 2023, dated 2024)

Tests used:
Test in all cases: Kinase panel study
Format in all cases: biochemical
Details in all cases: read-out: Percentage of inhibition; for inhibition at 1 µM: 1000nM; for inhibition at 10 µM: 10000nM
ADRBK1 (GRK2) = biological target: T1, ADRBK1 (GRK2) (Homo sapiens, UniProt P25098)
T1 construct: purchased Thermo Fisher Scientific
T1 sequence (P25098 1-689): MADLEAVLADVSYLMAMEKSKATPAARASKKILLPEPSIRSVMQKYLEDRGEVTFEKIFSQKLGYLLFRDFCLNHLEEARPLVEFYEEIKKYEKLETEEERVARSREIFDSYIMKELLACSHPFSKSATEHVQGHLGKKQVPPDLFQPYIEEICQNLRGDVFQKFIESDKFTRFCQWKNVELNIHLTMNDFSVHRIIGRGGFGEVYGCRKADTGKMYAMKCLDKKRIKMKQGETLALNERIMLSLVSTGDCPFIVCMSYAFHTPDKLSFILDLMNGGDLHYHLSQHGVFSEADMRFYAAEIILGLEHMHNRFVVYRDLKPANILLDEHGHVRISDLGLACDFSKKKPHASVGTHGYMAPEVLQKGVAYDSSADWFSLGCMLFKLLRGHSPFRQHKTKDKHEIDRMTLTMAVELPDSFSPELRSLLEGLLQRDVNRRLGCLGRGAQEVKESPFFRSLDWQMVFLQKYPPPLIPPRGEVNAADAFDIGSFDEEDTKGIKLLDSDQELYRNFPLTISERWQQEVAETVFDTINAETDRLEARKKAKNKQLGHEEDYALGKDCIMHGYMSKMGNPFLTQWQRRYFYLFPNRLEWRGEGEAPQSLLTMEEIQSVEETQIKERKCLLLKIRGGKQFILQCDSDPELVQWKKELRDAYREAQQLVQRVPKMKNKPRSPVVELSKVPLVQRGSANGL
In short: (§1)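 Percent inhibition of each kinase by the test compound, given at either 1 µM or 10 µM, came from a contracted panel run by ZLyte or Adapta protocol.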

CAMK2D (CaMKII delta) = biological target: T2, CAMK2D (CaMKII delta) (Homo sapiens, UniProt Q13557)
T2 construct: purchased Thermo Fisher Scientific
In short: as §1

CDK17/cyclin Y = biological target: T3, CDK17/cyclin Y (Homo sapiens, UniProt Q00537)
T3 construct: purchased Thermo Fisher Scientific
In short: as §1

CDK2/cyclin A = biological target: T4, CDK2/cyclin A (Homo sapiens, UniProt P24941)
T4 construct: purchased Thermo Fisher Scientific
In short: as §1

ERBB4 (HER4) = biological target: T5, ERBB4 (HER4) (Homo sapiens, UniProt Q15303)
T5 construct: purchased Thermo Fisher Scientific
T5 sequence (Q15303 26-1308): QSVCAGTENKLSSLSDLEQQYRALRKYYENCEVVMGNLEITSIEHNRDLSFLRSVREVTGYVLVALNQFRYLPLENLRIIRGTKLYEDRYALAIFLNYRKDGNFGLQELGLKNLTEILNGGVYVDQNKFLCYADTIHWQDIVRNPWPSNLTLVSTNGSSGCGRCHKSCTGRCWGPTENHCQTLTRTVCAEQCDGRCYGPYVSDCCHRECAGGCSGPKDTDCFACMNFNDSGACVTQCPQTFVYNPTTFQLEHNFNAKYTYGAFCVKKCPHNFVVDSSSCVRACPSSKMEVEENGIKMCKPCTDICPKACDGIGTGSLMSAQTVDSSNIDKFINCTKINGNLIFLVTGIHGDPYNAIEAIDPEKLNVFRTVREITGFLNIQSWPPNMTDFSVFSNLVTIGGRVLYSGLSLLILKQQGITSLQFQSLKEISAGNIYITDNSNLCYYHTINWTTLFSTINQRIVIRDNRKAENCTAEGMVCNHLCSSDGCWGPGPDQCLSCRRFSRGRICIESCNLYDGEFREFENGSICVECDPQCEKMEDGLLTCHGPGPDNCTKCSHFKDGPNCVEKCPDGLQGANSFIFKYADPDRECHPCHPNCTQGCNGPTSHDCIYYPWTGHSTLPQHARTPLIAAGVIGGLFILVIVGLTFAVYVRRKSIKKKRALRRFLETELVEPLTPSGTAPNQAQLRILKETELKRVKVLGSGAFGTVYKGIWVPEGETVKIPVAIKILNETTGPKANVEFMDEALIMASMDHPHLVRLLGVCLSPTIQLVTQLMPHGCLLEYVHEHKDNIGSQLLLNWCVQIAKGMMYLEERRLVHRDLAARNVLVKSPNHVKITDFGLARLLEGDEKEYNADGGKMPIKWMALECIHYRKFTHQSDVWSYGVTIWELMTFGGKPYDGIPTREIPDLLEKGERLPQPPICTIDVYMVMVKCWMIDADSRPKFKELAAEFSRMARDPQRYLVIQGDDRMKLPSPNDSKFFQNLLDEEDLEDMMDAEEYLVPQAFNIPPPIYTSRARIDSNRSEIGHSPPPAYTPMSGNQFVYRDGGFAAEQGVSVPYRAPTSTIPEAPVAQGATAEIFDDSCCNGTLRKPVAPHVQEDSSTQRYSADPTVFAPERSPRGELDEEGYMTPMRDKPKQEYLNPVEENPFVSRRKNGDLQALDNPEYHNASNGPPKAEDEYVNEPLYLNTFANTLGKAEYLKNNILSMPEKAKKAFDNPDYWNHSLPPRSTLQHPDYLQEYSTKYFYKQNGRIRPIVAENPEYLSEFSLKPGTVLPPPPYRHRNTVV
In short: as §1

KIT V560G = biological target: T6, KIT V560G (Homo sapiens, UniProt P10721, V560G)
T6 construct: purchased Thermo Fisher Scientific
T6 sequence (P10721 26-976 V560G): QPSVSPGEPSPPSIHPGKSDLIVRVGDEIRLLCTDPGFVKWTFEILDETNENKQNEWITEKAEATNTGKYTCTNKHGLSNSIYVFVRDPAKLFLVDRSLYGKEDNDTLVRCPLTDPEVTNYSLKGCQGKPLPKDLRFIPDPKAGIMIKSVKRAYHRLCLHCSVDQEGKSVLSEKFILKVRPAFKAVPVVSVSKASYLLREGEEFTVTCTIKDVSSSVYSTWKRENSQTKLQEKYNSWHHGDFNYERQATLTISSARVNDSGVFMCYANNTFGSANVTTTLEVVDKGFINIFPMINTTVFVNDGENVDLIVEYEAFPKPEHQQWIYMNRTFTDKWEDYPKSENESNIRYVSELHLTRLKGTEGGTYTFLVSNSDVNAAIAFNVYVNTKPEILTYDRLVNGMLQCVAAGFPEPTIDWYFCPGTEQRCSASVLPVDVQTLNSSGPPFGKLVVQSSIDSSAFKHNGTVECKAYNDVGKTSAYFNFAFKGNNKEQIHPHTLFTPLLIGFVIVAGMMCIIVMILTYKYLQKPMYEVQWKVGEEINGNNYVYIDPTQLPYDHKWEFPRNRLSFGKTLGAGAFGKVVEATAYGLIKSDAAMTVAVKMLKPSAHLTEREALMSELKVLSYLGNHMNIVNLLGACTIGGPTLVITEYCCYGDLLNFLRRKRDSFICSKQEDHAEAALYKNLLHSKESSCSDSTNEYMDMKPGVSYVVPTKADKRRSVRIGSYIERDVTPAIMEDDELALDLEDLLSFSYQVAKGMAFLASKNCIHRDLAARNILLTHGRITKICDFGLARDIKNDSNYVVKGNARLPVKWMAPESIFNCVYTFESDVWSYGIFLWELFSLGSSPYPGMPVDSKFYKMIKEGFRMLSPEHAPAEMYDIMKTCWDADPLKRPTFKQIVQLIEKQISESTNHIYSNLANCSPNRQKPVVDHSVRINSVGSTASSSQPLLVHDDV
In short: as §1

NTRK3 (TRKC) = biological target: T7, NTRK3 (TRKC) (Homo sapiens, UniProt Q16288)
T7 construct: purchased Thermo Fisher Scientific
T7 sequence (Q16288 32-839): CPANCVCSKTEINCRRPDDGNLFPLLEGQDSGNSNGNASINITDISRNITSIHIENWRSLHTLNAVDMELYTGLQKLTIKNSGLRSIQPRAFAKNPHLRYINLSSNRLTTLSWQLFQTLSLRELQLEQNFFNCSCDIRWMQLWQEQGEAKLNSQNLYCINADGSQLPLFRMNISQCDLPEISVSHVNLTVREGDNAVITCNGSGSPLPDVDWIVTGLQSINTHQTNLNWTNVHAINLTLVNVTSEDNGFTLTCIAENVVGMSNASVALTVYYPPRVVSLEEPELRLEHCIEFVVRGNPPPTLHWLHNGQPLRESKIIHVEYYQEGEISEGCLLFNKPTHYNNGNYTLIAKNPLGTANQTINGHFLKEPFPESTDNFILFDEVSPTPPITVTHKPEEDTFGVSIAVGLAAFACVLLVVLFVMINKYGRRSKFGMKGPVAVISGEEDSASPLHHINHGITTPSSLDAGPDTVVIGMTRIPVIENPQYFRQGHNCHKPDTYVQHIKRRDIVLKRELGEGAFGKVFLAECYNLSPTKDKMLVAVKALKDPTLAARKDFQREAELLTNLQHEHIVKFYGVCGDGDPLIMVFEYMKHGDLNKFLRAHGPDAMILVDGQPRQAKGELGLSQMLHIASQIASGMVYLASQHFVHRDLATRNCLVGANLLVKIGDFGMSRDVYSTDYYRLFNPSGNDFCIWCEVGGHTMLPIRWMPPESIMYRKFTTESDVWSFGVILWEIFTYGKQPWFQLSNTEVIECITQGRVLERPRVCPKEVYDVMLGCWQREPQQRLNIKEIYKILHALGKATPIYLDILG
In short: as §1

PIK3C3 (hVPS34) = biological target: T8, PIK3C3 (hVPS34) (Homo sapiens, UniProt Q8NEB9)
T8 construct: purchased Thermo Fisher Scientific
T8 sequence (Q8NEB9 whole entry): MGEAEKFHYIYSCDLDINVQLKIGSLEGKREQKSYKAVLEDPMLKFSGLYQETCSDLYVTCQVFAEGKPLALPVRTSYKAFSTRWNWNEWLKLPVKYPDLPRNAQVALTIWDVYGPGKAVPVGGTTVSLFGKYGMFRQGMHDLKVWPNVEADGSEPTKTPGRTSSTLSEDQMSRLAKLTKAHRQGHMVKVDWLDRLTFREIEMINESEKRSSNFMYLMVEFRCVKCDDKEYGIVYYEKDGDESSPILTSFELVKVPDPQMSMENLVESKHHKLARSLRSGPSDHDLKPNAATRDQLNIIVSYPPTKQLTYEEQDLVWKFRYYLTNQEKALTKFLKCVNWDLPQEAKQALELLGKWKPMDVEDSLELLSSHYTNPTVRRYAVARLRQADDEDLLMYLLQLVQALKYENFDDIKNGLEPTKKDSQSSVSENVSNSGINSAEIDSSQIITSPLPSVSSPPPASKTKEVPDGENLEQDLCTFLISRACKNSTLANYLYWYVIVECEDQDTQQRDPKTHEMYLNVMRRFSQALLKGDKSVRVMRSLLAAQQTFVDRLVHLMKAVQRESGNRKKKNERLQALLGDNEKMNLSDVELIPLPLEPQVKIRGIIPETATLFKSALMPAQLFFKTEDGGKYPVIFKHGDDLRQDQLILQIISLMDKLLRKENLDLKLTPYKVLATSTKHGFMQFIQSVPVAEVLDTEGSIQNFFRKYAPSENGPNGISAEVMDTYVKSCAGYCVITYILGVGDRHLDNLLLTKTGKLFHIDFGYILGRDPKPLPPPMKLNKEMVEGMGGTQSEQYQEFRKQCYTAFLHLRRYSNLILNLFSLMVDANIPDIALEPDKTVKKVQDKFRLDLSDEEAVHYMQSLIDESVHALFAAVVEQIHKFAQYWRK
In short: as §1

PIM2 = biological target: T9, PIM2 (Homo sapiens, UniProt Q9P1W9)
T9 construct: purchased Thermo Fisher Scientific
T9 sequence (Q9P1W9 whole entry): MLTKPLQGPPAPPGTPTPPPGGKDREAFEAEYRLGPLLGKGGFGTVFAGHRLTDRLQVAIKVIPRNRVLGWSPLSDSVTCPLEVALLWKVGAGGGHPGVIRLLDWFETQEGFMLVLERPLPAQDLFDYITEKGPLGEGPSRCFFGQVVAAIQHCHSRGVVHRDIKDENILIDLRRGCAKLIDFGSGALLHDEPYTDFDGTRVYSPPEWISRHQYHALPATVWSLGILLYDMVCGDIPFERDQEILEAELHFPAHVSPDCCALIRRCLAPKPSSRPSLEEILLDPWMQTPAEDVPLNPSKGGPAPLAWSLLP
In short: as §1

Row | Structure (SMILES) | inhibition at 1 µM (ADRBK1 (GRK2)) [%] | inhibition at 10 µM (ADRBK1 (GRK2)) [%] | inhibition at 1 µM (CAMK2D (CaMKII delta)) [%] | inhibition at 10 µM (CAMK2D (CaMKII delta)) [%] | inhibition at 1 µM (CDK17/cyclin Y) [%] | inhibition at 10 µM (CDK17/cyclin Y) [%] | inhibition at 1 µM (CDK2/cyclin A) [%] | inhibition at 10 µM (CDK2/cyclin A) [%] | inhibition at 1 µM (ERBB4 (HER4)) [%] | inhibition at 10 µM (ERBB4 (HER4)) [%] | inhibition at 1 µM (KIT V560G) [%] | inhibition at 10 µM (KIT V560G) [%] | inhibition at 1 µM (NTRK3 (TRKC)) [%] | inhibition at 10 µM (NTRK3 (TRKC)) [%] | inhibition at 1 µM (PIK3C3 (hVPS34)) [%] | inhibition at 10 µM (PIK3C3 (hVPS34)) [%] | inhibition at 1 µM (PIM2) [%] | inhibition at 10 µM (PIM2) [%]
1 | COc1ccc2c(c1OC)c(=O)n1c3ccc(O)cc3c3ccnc2c31 [MW01, 5-Hydroxy-10,11-dimethoxy-9H-benzo[c]indolo[3,2,1-ij][1,5]naphthyridin-9-one] | 8 | 17 | 13 | 60 | 3 | 9 | 14 | 37 | -3 | 4 | 12 | 7 | 42 | 66 | 23 | 49 | 6 | 13
2 | COc1ccc2cc3c(N)nn(C(=O)c4cccc(N(C)C)c4)c3nc2c1 [MW05, (3-Amino-7-methoxypyrazolo[3,4-b]quinolin-1-yl)-[3-(dimethylamino)phenyl]methanone] | -1 | 4 | 3 | 13 | 8 | 21 | 12 | 25 | 5 | -11 | 11 | 2 | 10 | 11 | 4 | 4 | -1 | -3
